Measured values as given in ChEMBL document CHEMBL3526061, “Glucuronidation of edaravone by human liver and kidney microsomes: biphasic kinetics and identification of UGT1A9 as the major UDP-glucuronosyltransferase isoform” (Drug Metab Dispos, 2012).

Columns and labels:
Assay type in all cases: ADME
[1] = target: T1, UDP-glucuronosyltransferase 2B17 (Homo sapiens, UniProt O75795); experiment: Activity of human recombinant UGT2B17 expressed in insect cells assessed as enzyme mediated glucuronidation at 12.5 uM by LC-MS/MS method
T1 sequence (O75795 whole entry): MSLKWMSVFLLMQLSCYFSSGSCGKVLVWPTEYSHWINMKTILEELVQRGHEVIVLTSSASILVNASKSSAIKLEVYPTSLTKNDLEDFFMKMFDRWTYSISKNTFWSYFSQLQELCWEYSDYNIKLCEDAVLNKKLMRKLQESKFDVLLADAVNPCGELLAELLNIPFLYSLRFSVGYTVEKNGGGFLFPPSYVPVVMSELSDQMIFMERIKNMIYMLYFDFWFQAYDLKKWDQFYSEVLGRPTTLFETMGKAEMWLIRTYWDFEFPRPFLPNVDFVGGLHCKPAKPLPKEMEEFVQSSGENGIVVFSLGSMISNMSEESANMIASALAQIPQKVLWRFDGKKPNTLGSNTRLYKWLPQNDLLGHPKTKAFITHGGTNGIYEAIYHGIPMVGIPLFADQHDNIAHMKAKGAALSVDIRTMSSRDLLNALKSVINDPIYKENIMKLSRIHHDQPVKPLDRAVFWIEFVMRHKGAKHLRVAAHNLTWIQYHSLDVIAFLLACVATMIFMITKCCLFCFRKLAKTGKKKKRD

[2] = target: T2, UDP-glucuronosyltransferase 2B7 (Homo sapiens, UniProt P16662); experiment: Activity of human recombinant UGT2B7 expressed in insect cells assessed as intrinsic clearance for enzyme mediated glucuronidation per mg protein by LC-MS/MS method
T2 sequence (P16662 whole entry): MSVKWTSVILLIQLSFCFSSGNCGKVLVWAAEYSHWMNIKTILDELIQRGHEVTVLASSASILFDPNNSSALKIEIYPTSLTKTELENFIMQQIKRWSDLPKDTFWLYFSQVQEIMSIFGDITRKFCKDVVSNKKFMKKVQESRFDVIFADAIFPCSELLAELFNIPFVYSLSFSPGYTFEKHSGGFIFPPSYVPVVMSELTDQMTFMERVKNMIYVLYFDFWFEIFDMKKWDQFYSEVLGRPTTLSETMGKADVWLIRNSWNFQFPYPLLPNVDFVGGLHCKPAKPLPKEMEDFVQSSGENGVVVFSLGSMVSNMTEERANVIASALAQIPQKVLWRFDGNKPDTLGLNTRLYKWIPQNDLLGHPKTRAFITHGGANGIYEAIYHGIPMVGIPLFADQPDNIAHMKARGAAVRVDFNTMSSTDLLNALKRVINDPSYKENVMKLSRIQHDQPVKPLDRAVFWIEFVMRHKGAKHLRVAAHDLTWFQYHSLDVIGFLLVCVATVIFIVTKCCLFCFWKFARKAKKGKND

[3] = target: T3, UDP-glucuronosyltransferase 1A1 (Homo sapiens, UniProt P22309); experiment: Activity of human recombinant UGT1A1 expressed in insect cells assessed as enzyme mediated glucuronidation in presence of 10 to 50 uM estradiol by LC-MS/MS method
T3 sequence (P22309 whole entry): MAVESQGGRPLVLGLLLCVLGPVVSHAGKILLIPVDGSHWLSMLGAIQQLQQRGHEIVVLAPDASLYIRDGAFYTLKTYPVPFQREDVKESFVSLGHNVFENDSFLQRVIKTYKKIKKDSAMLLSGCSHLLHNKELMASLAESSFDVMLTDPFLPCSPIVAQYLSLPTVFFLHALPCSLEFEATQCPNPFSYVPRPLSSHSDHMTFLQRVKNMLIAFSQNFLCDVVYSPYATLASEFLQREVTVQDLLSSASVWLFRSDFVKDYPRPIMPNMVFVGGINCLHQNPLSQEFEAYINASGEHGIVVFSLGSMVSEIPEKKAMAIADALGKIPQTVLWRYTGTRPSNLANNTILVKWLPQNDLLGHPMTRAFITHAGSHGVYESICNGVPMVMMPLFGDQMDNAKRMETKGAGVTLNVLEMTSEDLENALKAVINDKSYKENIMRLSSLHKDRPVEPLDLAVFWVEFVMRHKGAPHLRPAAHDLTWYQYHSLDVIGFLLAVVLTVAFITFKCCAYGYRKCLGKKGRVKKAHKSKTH

[4] = target: T1, UDP-glucuronosyltransferase 2B17; experiment: Activity of human recombinant UGT2B17 expressed in insect cells assessed as enzyme mediated glucuronidation in presence of 5 to 35 uM androsterone by LC-MS/MS method
[5] = Drug metabolism in human kidney microsomes assessed as drug glucuronidation in absence of BSA by LC-MS/MS method
[6] = Drug metabolism in human kidney microsomes assessed as intrinsic clearance for drug glucuronidation per mg tissue in absence of BSA by LC-MS/MS method
[7] = Drug metabolism in human kidney microsomes assessed as drug glucuronidation in presence of BSA by LC-MS/MS method
[8] = target: T4, UDP-glucuronosyltransferase 2B4 (Homo sapiens, UniProt P06133); experiment: Activity of human recombinant UGT2B4 expressed in insect cells assessed as enzyme mediated glucuronidation at 500 uM by LC-MS/MS method
T4 sequence (P06133 whole entry): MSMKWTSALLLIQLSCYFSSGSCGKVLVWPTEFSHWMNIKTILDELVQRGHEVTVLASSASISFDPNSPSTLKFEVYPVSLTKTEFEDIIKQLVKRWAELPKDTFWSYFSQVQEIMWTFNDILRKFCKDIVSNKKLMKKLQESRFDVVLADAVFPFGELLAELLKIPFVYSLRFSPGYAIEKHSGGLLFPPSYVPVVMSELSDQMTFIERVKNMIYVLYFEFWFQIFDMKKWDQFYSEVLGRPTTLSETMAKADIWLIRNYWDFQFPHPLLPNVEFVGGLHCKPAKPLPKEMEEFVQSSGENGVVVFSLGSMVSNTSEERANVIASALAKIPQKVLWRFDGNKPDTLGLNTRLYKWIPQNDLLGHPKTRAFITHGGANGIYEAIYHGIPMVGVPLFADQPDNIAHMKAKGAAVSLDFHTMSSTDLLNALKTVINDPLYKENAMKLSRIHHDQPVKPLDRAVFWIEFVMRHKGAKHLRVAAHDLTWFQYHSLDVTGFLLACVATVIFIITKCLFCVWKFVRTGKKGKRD

For `CC1=NN(c2ccccc2)C(=O)C1` [EDARAVONE], the Drug metabolism [1] was “metabolite_detected”, the CL [2] was 0.7 µL/min/g and the Drug metabolism [3] was “metabolite_not_detected”. For the same compound, the Drug metabolism [4] was “metabolite_not_detected”, the Km ([5]; read-out: KmH) was 7.4 µM and the Km ([5]; read-out: KmL) was 1360 µM. For the same compound, the CL(high) [6] was 45.3 µL/min/mg, the CL(low) [6] was 1.8 µL/min/mg and the Km ([7]; read-out: KmH) was 8.7 µM. The Km ([7]; read-out: KmL) was 1470 µM and the Drug metabolism [8] was “metabolite_detected”.
